Measurements: ChEMBL document CHEMBL5058564, “EUbOPEN Chemogenomics Library 2 (Incucyte)” (2022)

Columns and labels:
Assay type in all cases: toxicity, cell-based
[1] = tested on: HEK-293T; experiment: Incucyte cell viability with HEK293T; conditions: human, 10 µM, compound concentration 10 uM
[2] = tested on: Fibroblast; experiment: Incucyte cell viability with human fibroblast; conditions: 10 µM, compound concentration 10 uM
[3] = tested on: U2OS; experiment: Incucyte cell viability with U2OS; conditions: human, 10 µM, compound concentration 10 uM
[4] = 0 h, replicate number 1, timepoint 0 hours
[5] = 6 h, replicate number 1, timepoint 6 hours
[6] = 6 h, replicate number 2, timepoint 6 hours
[7] = 12 h, replicate number 1, timepoint 12 hours
[8] = 12 h, replicate number 2, timepoint 12 hours
[9] = 18 h, replicate number 1, timepoint 18 hours
[10] = 18 h, replicate number 2, timepoint 18 hours
[11] = 24 h, replicate number 1, timepoint 24 hours
[12] = 24 h, replicate number 2, timepoint 24 hours
[13] = 0 h, replicate number 2, timepoint 0 hours
Further: unitless GR value; below 1 slowed growth and below 0 cell loss.

Compound: O=S(=O)(c1ccccc1)N(CC(F)(F)F)c1ccc(C(O)(C(F)(F)F)C(F)(F)F)cc1 [T091317]
- Growth Rate [1, 4]: 0.85
- Growth Rate [1, 5]: 0.85
- Growth Rate [1, 6]: 0.77
- Growth Rate [1, 7]: 0.42
- Growth Rate [1, 8]: 0.75
- Growth Rate [1, 9]: 0.24
- Growth Rate [1, 10]: 0.56
- Growth Rate [1, 11]: 0.37
- Growth Rate [1, 12]: 0.53
- Growth Rate [2, 5]: 0.72
- Growth Rate [2, 7]: -0.09
- Growth Rate [2, 8]: 0.22
- Growth Rate [2, 9]: -0.3
- Growth Rate [2, 10]: 0.05
- Growth Rate [2, 11]: -0.32
- Growth Rate [2, 12]: 0.05
- Growth Rate [3, 4]: 0.14
- Growth Rate [3, 13]: -0.29
- Growth Rate [3, 5]: 0.74
- Growth Rate [3, 8]: 0.83
- Growth Rate [3, 9]: 0.98
- Growth Rate [3, 10]: 0.76
- Growth Rate [3, 12]: 0.81

Compound: CN[C@@H](C)C(=O)N[C@H]1CCCC[C@H]2CC[C@@H](C(=O)N[C@@H](c3ccccc3)c3cn(CCCCc4ccc(CCCCn5cc([C@@H](NC(=O)[C@@H]6CC[C@@H]7CCCC[C@H](NC(=O)[C@H](C)NC)C(=O)N76)c6ccccc6)nn5)cc4)nn3)N2C1=O
- Growth Rate [1, 4]: 0.2
- Growth Rate [1, 13]: 0.49
- Growth Rate [1, 5]: 0.5
- Growth Rate [1, 6]: 0.74
- Growth Rate [1, 7]: 0.73
- Growth Rate [1, 8]: 0.75
- Growth Rate [1, 9]: 0.93
- Growth Rate [1, 10]: 0.8
- Growth Rate [1, 11]: 0.66
- Growth Rate [1, 12]: 0.84
- Growth Rate [2, 13]: 0.01
- Growth Rate [2, 5]: 0.17
- Growth Rate [2, 7]: 0.57
- Growth Rate [2, 8]: 0.75
- Growth Rate [2, 10]: 0.88
- Growth Rate [2, 11]: 0.71
- Growth Rate [2, 12]: 0.81
- Growth Rate [3, 4]: -0.18
- Growth Rate [3, 5]: 0.83
- Growth Rate [3, 9]: 0.97
- Growth Rate [3, 11]: 1

Compound: OC[C@H]1O[C@@H](n2cnc3c(NC4CCCC4)ncnc32)[C@H](O)[C@@H]1O [N6-CYCLOPENTYLADENOSINE]
- Growth Rate [1, 4]: -0.12
- Growth Rate [1, 13]: -0.14
- Growth Rate [1, 5]: 0.92
- Growth Rate [1, 6]: 0.12
- Growth Rate [1, 7]: 0.81
- Growth Rate [1, 8]: 0.6
- Growth Rate [1, 9]: 0.75
- Growth Rate [1, 10]: 0.65
- Growth Rate [1, 11]: 0.73
- Growth Rate [1, 12]: 0.66
- Growth Rate [2, 4]: 0.37
- Growth Rate [2, 13]: -0.09
- Growth Rate [2, 12]: 0.92
- Growth Rate [3, 5]: 0.36
- Growth Rate [3, 6]: 0.74
- Growth Rate [3, 7]: 0.69
- Growth Rate [3, 8]: 0.94
- Growth Rate [3, 9]: 0.53
- Growth Rate [3, 10]: 0.93
- Growth Rate [3, 11]: 0.71
- Growth Rate [3, 12]: 1

Compound: N=C(N)NCCC[C@H](NC(=O)COCC(c1ccccc1)c1ccccc1)C(=O)O.O=C(O)C(F)(F)F
- Growth Rate [1, 4]: 0.96
- Growth Rate [1, 13]: 0.2
- Growth Rate [1, 5]: 1
- Growth Rate [1, 7]: 0.7
- Growth Rate [1, 9]: 0.84
- Growth Rate [2, 13]: 0.91
- Growth Rate [2, 5]: 0.91
- Growth Rate [2, 7]: 0.66
- Growth Rate [2, 9]: 0.46
- Growth Rate [2, 11]: 0.79
- Growth Rate [3, 4]: 0.29
- Growth Rate [3, 13]: 0.34
- Growth Rate [3, 5]: 0.54
- Growth Rate [3, 6]: 0.72
- Growth Rate [3, 7]: 0.84
- Growth Rate [3, 8]: 0.86
- Growth Rate [3, 9]: 0.7
- Growth Rate [3, 10]: 0.91
- Growth Rate [3, 11]: 0.8
- Growth Rate [3, 12]: 1

Compound: COc1cc(Br)c(S(=O)(=O)Nc2ccc(C(F)(F)F)c(O[C@@H]3CCN(C)C3)c2)cc1OC
- Growth Rate [1, 4]: 0.96
- Growth Rate [1, 6]: 0.09
- Growth Rate [1, 8]: 0.38
- Growth Rate [1, 10]: 0.94
- Growth Rate [2, 5]: -0.5
- Growth Rate [2, 6]: -0.63
- Growth Rate [2, 7]: -0.19
- Growth Rate [2, 8]: -0.22
- Growth Rate [2, 9]: -0.12
- Growth Rate [2, 10]: 0.19
- Growth Rate [2, 11]: -0.01
- Growth Rate [2, 12]: 0.1
- Growth Rate [3, 13]: -1
- Growth Rate [3, 5]: 0.02
- Growth Rate [3, 9]: 0.61
- Growth Rate [3, 10]: 1
- Growth Rate [3, 11]: 0.77

Compound: CCCCCC(O)/C=C/[C@H]1C(=O)CC(O)C1C/C=C\CCCC(=O)O (stereo partly drawn)
- Growth Rate [1, 4]: 0.99
- Growth Rate [1, 5]: 0.68
- Growth Rate [1, 7]: 0.59
- Growth Rate [1, 9]: 0.69
- Growth Rate [1, 11]: 0.58
- Growth Rate [2, 4]: 0.39
- Growth Rate [2, 13]: -0.28
- Growth Rate [2, 5]: -0.61
- Growth Rate [2, 7]: 0.36
- Growth Rate [2, 9]: 0.47
- Growth Rate [2, 11]: 0.54
- Growth Rate [3, 4]: -0.23
- Growth Rate [3, 13]: 0.05
- Growth Rate [3, 5]: 0.59
- Growth Rate [3, 7]: 0.59
- Growth Rate [3, 8]: 0.84
- Growth Rate [3, 9]: 0.66
- Growth Rate [3, 10]: 0.78
- Growth Rate [3, 11]: 0.72
- Growth Rate [3, 12]: 0.87

Compound: CC(=O)Nc1cccc2c1c(Sc1ccc(Cl)cc1)c(C)n2CC(=O)O [AZD1981]
- Growth Rate [1, 13]: 0.75
- Growth Rate [1, 5]: 0.62
- Growth Rate [1, 7]: 0.62
- Growth Rate [1, 9]: 0.83
- Growth Rate [1, 11]: 0.71
- Growth Rate [2, 13]: 0.38
- Growth Rate [2, 5]: 0.15
- Growth Rate [2, 6]: 0.04
- Growth Rate [2, 7]: 0.35
- Growth Rate [2, 8]: 0.14
- Growth Rate [2, 10]: 0.25
- Growth Rate [2, 11]: 0.73
- Growth Rate [2, 12]: 0.26
- Growth Rate [3, 6]: 0.93
- Growth Rate [3, 10]: 0.89
- Growth Rate [3, 12]: 0.95

Compound: Cc1cc(O)c(-c2ccc([C@@H](C)CN(C)C)cc2)c2c1[nH]c(=O)c1sccc12
- Growth Rate [1, 5]: -0.8
- Growth Rate [1, 6]: -0.77
- Growth Rate [1, 7]: -0.64
- Growth Rate [1, 8]: -0.63
- Growth Rate [1, 9]: -0.48
- Growth Rate [1, 10]: -0.52
- Growth Rate [1, 11]: -0.37
- Growth Rate [1, 12]: -0.4
- Growth Rate [2, 5]: -0.87
- Growth Rate [2, 6]: -0.66
- Growth Rate [2, 7]: -0.63
- Growth Rate [2, 8]: -0.4
- Growth Rate [2, 9]: -0.6
- Growth Rate [2, 10]: -0.3
- Growth Rate [2, 11]: -0.36
- Growth Rate [2, 12]: -0.25
- Growth Rate [3, 4]: -0.17
- Growth Rate [3, 13]: 1
- Growth Rate [3, 5]: 0.74
- Growth Rate [3, 6]: 0.66
- Growth Rate [3, 7]: 0.65
- Growth Rate [3, 8]: 0.31
- Growth Rate [3, 9]: 0.13
- Growth Rate [3, 10]: 0.18
- Growth Rate [3, 11]: 0.16
- Growth Rate [3, 12]: 0.09

Compound: NC(=O)c1ccc(CNC(=O)NC[C@H]2CN(Cc3ccc(Cl)c(Cl)c3)CCO2)cc1
- Growth Rate [1, 13]: 0.54
- Growth Rate [1, 5]: 0.47
- Growth Rate [1, 7]: 0.86
- Growth Rate [1, 9]: 0.88
- Growth Rate [1, 10]: 1
- Growth Rate [1, 11]: 0.88
- Growth Rate [1, 12]: 0.8
- Growth Rate [2, 4]: 0.21
- Growth Rate [3, 13]: 0.11
- Growth Rate [3, 5]: 0.32
- Growth Rate [3, 7]: 0.8
- Growth Rate [3, 9]: 0.91

Compound: COc1cc(C(=O)N2CC[C@@H](O)[C@@H](N)C2)cc2nc(-c3cc4ccccc4n3CC3CC3)n(C)c12.Cl
- Growth Rate [1, 5]: 0.71
- Growth Rate [1, 7]: 0.85
- Growth Rate [1, 9]: 0.88
- Growth Rate [1, 11]: 0.77
- Growth Rate [2, 5]: -0.98
- Growth Rate [2, 6]: -0.57
- Growth Rate [2, 7]: -0.8
- Growth Rate [2, 8]: -0.18
- Growth Rate [2, 9]: -0.63
- Growth Rate [2, 10]: -0.01
- Growth Rate [2, 11]: -0.52
- Growth Rate [2, 12]: 0.15
- Growth Rate [3, 4]: -0.04
- Growth Rate [3, 13]: 0.15
- Growth Rate [3, 5]: 0.61
- Growth Rate [3, 8]: 0.98
- Growth Rate [3, 10]: 0.99

Compound: C[C@H]1CN(C[C@H](Cc2ccccc2)C(=O)NCC(=O)O)CC[C@@]1(C)c1cccc(O)c1 [ALVIMOPAN]
- Growth Rate [1, 4]: 0.62
- Growth Rate [1, 13]: 0.08
- Growth Rate [1, 6]: 0.52
- Growth Rate [1, 7]: 0.9
- Growth Rate [1, 8]: 0.53
- Growth Rate [1, 9]: 1
- Growth Rate [1, 10]: 0.88
- Growth Rate [1, 11]: 0.93
- Growth Rate [1, 12]: 0.85
- Growth Rate [2, 4]: 0.37
- Growth Rate [2, 13]: -0.31
- Growth Rate [3, 13]: 0.76
- Growth Rate [3, 5]: 0.22
- Growth Rate [3, 8]: 0.99
- Growth Rate [3, 9]: 0.91
- Growth Rate [3, 10]: 0.92
- Growth Rate [3, 12]: 0.94

Compound: Cc1c(Cc2ccc3ccccc3n2)c2cc(F)ccc2n1CC(=O)O [TIMAPIPRANT]
- Growth Rate [1, 13]: 0.4
- Growth Rate [1, 9]: 0.82
- Growth Rate [2, 4]: 0.53
- Growth Rate [2, 13]: 0.31
- Growth Rate [2, 5]: 0.6
- Growth Rate [2, 7]: 0.51
- Growth Rate [2, 9]: 0.8
- Growth Rate [2, 11]: 0.87
- Growth Rate [3, 13]: -1
- Growth Rate [3, 5]: 0.37
- Growth Rate [3, 7]: 0.81
- Growth Rate [3, 9]: 0.63
- Growth Rate [3, 10]: 0.96
